Measurements as given in patent publication US9708336B2, “Metallo-beta-lactamase inhibitors” (priority 2014, dated 2017).
Read-outs that look alike come from different tables or passages of the source.

Tests used:
[1] = molecular target: IMP-1 (Serratia marcescens, UniProt P52699); experiment: biochemical; format: biochemical; conditions: fluorescence assay with CCF2-FA substrate; read-out: IMP-1 IC50
[2] = molecular target: NDM-1 (Klebsiella pneumoniae, UniProt C7C422); experiment: biochemical; format: biochemical; conditions: fluorescence assay with CCF2-FA substrate; read-out: NDM-1 IC50
Sequence of NDM-1 (C7C422 whole entry, looked up, species assumed): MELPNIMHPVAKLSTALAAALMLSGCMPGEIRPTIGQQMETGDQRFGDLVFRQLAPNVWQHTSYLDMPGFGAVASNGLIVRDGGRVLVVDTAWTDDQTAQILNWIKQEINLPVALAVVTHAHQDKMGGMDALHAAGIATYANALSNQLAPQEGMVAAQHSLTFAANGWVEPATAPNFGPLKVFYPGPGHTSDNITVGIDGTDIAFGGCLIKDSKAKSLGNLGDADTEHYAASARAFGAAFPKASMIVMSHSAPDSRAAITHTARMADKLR

[3] = molecular target: VIM-1 (Pseudomonas aeruginosa (strain ATCC 15692 / DSM 22644 / CIP 104116 / JCM 14847 / LMG 12228 / 1C / PRS 101 / PAO1), UniProt A0A0F7KYQ8); experiment: Enzyme activity: determination of IC50, fluorescence assay with CCF2-FA substrate (VIM-1); format: biochemical
[4] = test system: Klebsiella pneumoniae expressing VIM-1 (IHMA599644); experiment: Antibiotic potentiation activity: synergistic concentration (MITC95) with imipenem, OD600 growth; format: cell-based; conditions: concentration giving 95% inhibition of bacterial growth
Procedure, shortened: (§1)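 Spectrophotometric growth readings were taken following 22–24 h at 35 °C. Before that, organisms in 1.1× CAMHB were mixed with imipenem, used at 4 μg/ml in assay, and test compound.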

[5] = test system: Serratia marcescens expressing IMP-1 (CL5741); experiment: as above; format: cell-based; conditions: concentration giving 95% inhibition of bacterial growth
Procedure, shortened: as §1

[6] = test system: Escherichia coli expressing NDM-1 (CLB30016); experiment: as above; format: cell-based; conditions: concentration giving 95% inhibition of bacterial growth
Procedure, shortened: as §1

[7] = fluorescence assay with CCF2-FA substrate, read-out: VIM-1 IC50
[8] = VIM-1 IC50, fluorescence assay with CCF2-FA substrate

Sequence of IMP-1 (P52699 whole entry, looked up): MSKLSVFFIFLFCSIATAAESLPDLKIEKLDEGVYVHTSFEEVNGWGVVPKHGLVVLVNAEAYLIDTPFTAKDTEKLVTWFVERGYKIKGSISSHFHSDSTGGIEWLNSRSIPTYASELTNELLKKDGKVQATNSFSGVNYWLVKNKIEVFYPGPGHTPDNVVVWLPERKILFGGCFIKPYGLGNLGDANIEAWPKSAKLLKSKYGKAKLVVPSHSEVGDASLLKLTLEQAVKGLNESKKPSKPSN

Compound: NS(=O)(=O)c1cccc(-c2cnc3ccccc3c2)c1-c1nnn[nH]1 [Example 165, 3-(quinolin-3-yl)-2-(1H-tetrazol-5-yl)benzenesulfonamide]
- IC50 [1]: 214 nM
- IC50 [2]: 1.24 nM
- IC50 [3, 7]: 11.6 nM
- Klebsiella pneumoniae expressing VIM-1 (IHMA 599644) MITC95 [4]: 37.5 µM
- Serratia marcescens expressing IMP-1 (CL5741) MITC95 [5]: 9.375 µM
- Escherichia coli expressing NDM-1 (CLB 30016) MITC95 [6]: 0.5859 µM

Compound: N#Cc1ccccc1Cc1cccc(S(N)(=O)=O)c1-c1nnn[nH]1 [Example 166, 3-(2-cyanobenzyl)-2-(1H-tetrazol-5-yl)benzenesulfonamide]
- IC50 [1]: 74.5 nM
- IC50 [2]: 6.89 nM
- IC50 [3, 7]: 18.8 nM
- Klebsiella pneumoniae expressing VIM-1 (IHMA 599644) MITC95 [4]: 100 µM
- Serratia marcescens expressing IMP-1 (CL5741) MITC95 [5]: 3.906 µM
- Escherichia coli expressing NDM-1 (CLB 30016) MITC95 [6]: 2.344 µM

Compound: CC(C)Cc1cccc(S(N)(=O)=O)c1-c1nn[nH]n1 [Example 167, 3-isobutyl-2-(2H-tetrazol-5-yl)benzenesulfonamide]
- IC50 [1]: 260 nM
- IC50 [2]: 12.4 nM
- IC50 [3, 7]: 1030 nM
- Klebsiella pneumoniae expressing VIM-1 (IHMA 599644) MITC95 [4]: 200 µM
- Serratia marcescens expressing IMP-1 (CL5741) MITC95 [5]: 9.375 µM
- Escherichia coli expressing NDM-1 (CLB 30016) MITC95 [6]: 1.563 µM

Compound: NC1CCC(c2cccc(S(N)(=O)=O)c2-c2nn[nH]n2)CC1 (stereo not drawn) [Example 168, 3-(4-Aminocyclohexyl)-2-(2H-tetrazol-5-yl)benzenesulfonamide]
- IC50 [1]: 865 nM
- IC50 [2]: 39.4 nM
- IC50 [3, 7]: 50.3 nM
- Klebsiella pneumoniae expressing VIM-1 (IHMA 599644) MITC95 [4]: 2.172 µM
- Serratia marcescens expressing IMP-1 (CL5741) MITC95 [5]: 6.25 µM
- Escherichia coli expressing NDM-1 (CLB 30016) MITC95 [6]: 0.25 µM

Compound: NS(=O)(=O)c1cccc(C2CCC(N3CCNCC3)CC2)c1-c1nn[nH]n1 (stereo not drawn) [Example 170, 3-(4-(piperazin-1-yl)cyclohexyl)-2-(2H-tetrazol-5-yl)benzenesulfonamide]
- IC50 [1]: 577 nM
- IC50 [2]: 21.9 nM
- IC50 [3, 7]: 3470 nM
- Klebsiella pneumoniae expressing VIM-1 (IHMA 599644) MITC95 [4]: 200 µM
- Serratia marcescens expressing IMP-1 (CL5741) MITC95 [5]: 9.375 µM
- Escherichia coli expressing NDM-1 (CLB 30016) MITC95 [6]: 1.563 µM

Compound: NS(=O)(=O)c1cccc(C2CCC(O)CC2)c1-c1nn[nH]n1 (stereo not drawn) [Example 171, 3-(4-hydroxycyclohexyl)-2-(2H-tetrazol-5-yl)benzenesulfonamide]
- IC50 [1]: 119 nM
- IC50 [2]: 8.56 nM
- IC50 [3, 7]: 128 nM
- Klebsiella pneumoniae expressing VIM-1 (IHMA 599644) MITC95 [4]: 25 µM
- Serratia marcescens expressing IMP-1 (CL5741) MITC95 [5]: 6.25 µM
- Escherichia coli expressing NDM-1 (CLB 30016) MITC95 [6]: 2.344 µM

Compound: NS(=O)(=O)c1cccc(C2CCn3cncc3C2)c1-c1nn[nH]n1 (stereo not drawn) [Example 178, 3-(5,6,7,8-tetrahydroimidazo[1,5-a]pyridin-7-yl)-2-(2H-tetrazol-5-yl)benzenesulfonamide]
- IC50 [1]: 1020 nM
- IC50 [2]: 28.4 nM
- IC50 [3, 8]: 65.5 nM
- Klebsiella pneumoniae expressing VIM-1 (IHMA 599644) MITC95 [4]: 9.375 µM
- Serratia marcescens expressing IMP-1 (CL5741) MITC95 [5]: 12.5 µM
- Escherichia coli expressing NDM-1 (CLB 30016) MITC95 [6]: 0.25 µM

Compound: Cc1ccc(Oc2cccc(S(N)(=O)=O)c2-c2nn[nH]n2)cc1 [Example 179, 2-(2H-tetrazol-5-yl)-3-(p-tolyloxy)benzenesulfonamide]
- IC50 [1]: 406 nM
- IC50 [2]: 10.8 nM
- IC50 [3, 7]: 1440 nM
- Klebsiella pneumoniae expressing VIM-1 (IHMA 599644) MITC95 [4]: >200 µM
- Serratia marcescens expressing IMP-1 (CL5741) MITC95 [5]: 37.5 µM
- Escherichia coli expressing NDM-1 (CLB 30016) MITC95 [6]: 3.125 µM

Compound: Nc1nnc(C2CCN(c3ccnc(S(N)(=O)=O)c3-c3nnn[nH]3)CC2)s1 [Example 216, 4-[4-(5-amino-1,3,4-thiadiazol-2-yl)piperidin-1-yl]-3-(1H-tetrazol-5-yl)pyridine-2-sulfonamide]
- IC50 [1]: 456 nM
- IC50 [2]: 40.4 nM
- IC50 [3, 8]: 96.7 nM
- Klebsiella pneumoniae expressing VIM-1 (IHMA 599644) MITC95 [4]: 18.75 µM
- Serratia marcescens expressing IMP-1 (CL5741) MITC95 [5]: 12.5 µM
- Escherichia coli expressing NDM-1 (CLB 30016) MITC95 [6]: 1.172 µM

Compound: NS(=O)(=O)c1nccc(N2CCC(c3ccncc3)CC2)c1-c1nnn[nH]1 [Example 217, 4-(4-pyridin-4-ylpiperidin-1-yl)-3-(1H-tetrazol-5-yl)pyridine-2-sulfonamide]
- IC50 [1]: 481 nM
- IC50 [2]: 43 nM
- IC50 [3, 8]: 49.3 nM
- Klebsiella pneumoniae expressing VIM-1 (IHMA 599644) MITC95 [4]: 150 µM
- Serratia marcescens expressing IMP-1 (CL5741) MITC95 [5]: 12.5 µM
- Escherichia coli expressing NDM-1 (CLB 30016) MITC95 [6]: 4.688 µM

Compound: NS(=O)(=O)c1nccc(N2CCC(c3cccnc3)CC2)c1-c1nnn[nH]1 [Example 218, 4-(4-pyridin-3-ylpiperidin-1-yl)-3-(1H-tetrazol-5-yl)pyridine-2-sulfonamide]
- IC50 [1]: 484 nM
- IC50 [2]: 102 nM
- IC50 [3, 7]: 106 nM
- Klebsiella pneumoniae expressing VIM-1 (IHMA 599644) MITC95 [4]: 100 µM
- Serratia marcescens expressing IMP-1 (CL5741) MITC95 [5]: 25 µM
- Escherichia coli expressing NDM-1 (CLB 30016) MITC95 [6]: 12.5 µM

Compound: CN(C)CCC1CCN(c2ccnc(S(N)(=O)=O)c2-c2nnn[nH]2)CC1 [Example 219, 4-{4-[2-(dimethylamino)ethyl]piperidin-1-yl}-3-(1H-tetrazol-5-yl)pyridine-2-sulfonamide]
- IC50 [1]: 10400 nM
- IC50 [2]: 1060 nM
- IC50 [3, 7]: 458 nM
- Klebsiella pneumoniae expressing VIM-1 (IHMA 599644) MITC95 [4]: 12.5 µM
- Serratia marcescens expressing IMP-1 (CL5741) MITC95 [5]: 37.5 µM
- Escherichia coli expressing NDM-1 (CLB 30016) MITC95 [6]: 4.688 µM

Compound: NS(=O)(=O)c1nccc(N2CCCC(c3ccccn3)C2)c1-c1nnn[nH]1 (stereo not drawn) [Example 220, 4-(3-pyridin-2-ylpiperidin-1-yl)-3-(1H-tetrazol-5-yl)pyridine-2-sulfonamide]
- IC50 [1]: 2390 nM
- IC50 [2]: 22.8 nM
- IC50 [3, 7]: 234 nM
- Klebsiella pneumoniae expressing VIM-1 (IHMA 599644) MITC95 [4]: >200 µM
- Serratia marcescens expressing IMP-1 (CL5741) MITC95 [5]: 75 µM
- Escherichia coli expressing NDM-1 (CLB 30016) MITC95 [6]: 12.5 µM

Compound: NS(=O)(=O)c1nccc(N2CCC3(CC2)NCNC3=O)c1-c1nnn[nH]1 [Example 221, 4-(4-oxo-1,3,8-triazaspiro[4.5]dec-8-yl)-3-(1H-tetrazol-5-yl)pyridine-2-sulfonamide]
- IC50 [1]: 6170 nM
- IC50 [2]: 251 nM
- IC50 [3, 7]: 6170 nM
- Klebsiella pneumoniae expressing VIM-1 (IHMA 599644) MITC95 [4]: 200 µM
- Serratia marcescens expressing IMP-1 (CL5741) MITC95 [5]: 100 µM
- Escherichia coli expressing NDM-1 (CLB 30016) MITC95 [6]: 4.688 µM

Compound: NS(=O)(=O)c1nccc(N2CCC(N3CCCC3)CC2)c1-c1nnn[nH]1 [Example 222, 4-(4-pyrrolidin-1-ylpiperidin-1-yl)-3-(1H-tetrazol-5-yl)pyridine-2-sulfonamide]
- IC50 [1]: 20000 nM
- IC50 [2]: 5150 nM
- IC50 [3, 7]: 794 nM
- Klebsiella pneumoniae expressing VIM-1 (IHMA 599644) MITC95 [4]: 12.5 µM
- Serratia marcescens expressing IMP-1 (CL5741) MITC95 [5]: 75 µM
- Escherichia coli expressing NDM-1 (CLB 30016) MITC95 [6]: 12.5 µM

Compound: CC(C1CCN(c2ccnc(S(N)(=O)=O)c2-c2nnn[nH]2)CC1)N1CCOCC1 (stereo not drawn) [Example 223, 4-[4-(1-morpholin-4-ylethyl)piperidin-1-yl]-3-(1H-tetrazol-5-yl)pyridine-2-sulfonamide]
- IC50 [1]: 1300 nM
- IC50 [2]: 157 nM
- IC50 [3, 7]: 583 nM
- Klebsiella pneumoniae expressing VIM-1 (IHMA 599644) MITC95 [4]: 200 µM
- Serratia marcescens expressing IMP-1 (CL5741) MITC95 [5]: 25 µM
- Escherichia coli expressing NDM-1 (CLB 30016) MITC95 [6]: 4.688 µM

Compound: NS(=O)(=O)c1nccc(N2CCC(c3cnc4n3CCCC4)CC2)c1-c1nnn[nH]1 [Example 225, 4-[4-(5,6,7,8-tetrahydroimidazo[1,2-a]pyridin-3-yl)piperidin-1-yl]-3-(1H-tetrazol-5-yl)pyridine-2-sulfonamide]
- IC50 [1]: 76.2 nM
- IC50 [2]: 142 nM
- IC50 [3, 7]: 226 nM
- Klebsiella pneumoniae expressing VIM-1 (IHMA 599644) MITC95 [4]: 50 µM
- Serratia marcescens expressing IMP-1 (CL5741) MITC95 [5]: 2.344 µM
- Escherichia coli expressing NDM-1 (CLB 30016) MITC95 [6]: 9.375 µM

Compound: NS(=O)(=O)c1nccc(N2CCC(N3CC[C@H](O)C3)CC2)c1-c1nnn[nH]1 [Example 226, 4-{4-[(3S)-3-hydroxypyrrolidin-1-yl]piperidin-1-yl}-3-(1H-tetrazol-5-yl)pyridine-2-sulfonamide]
- IC50 [1]: 3870 nM
- IC50 [2]: 481 nM
- IC50 [3, 7]: 710 nM
- Klebsiella pneumoniae expressing VIM-1 (IHMA 599644) MITC95 [4]: 12.5 µM
- Serratia marcescens expressing IMP-1 (CL5741) MITC95 [5]: 50 µM
- Escherichia coli expressing NDM-1 (CLB 30016) MITC95 [6]: 6.25 µM

Compound: NS(=O)(=O)c1nccc(N2CCC(N3CCNCC3)CC2)c1-c1nnn[nH]1 [Example 227, 4-(4-piperazin-1-ylpiperidin-1-yl)-3-(1H-tetrazol-5-yl)pyridine-2-sulfonamide]
- IC50 [1]: 7070 nM
- IC50 [2]: 888 nM
- IC50 [3, 7]: 261 nM
- Klebsiella pneumoniae expressing VIM-1 (IHMA 599644) MITC95 [4]: 6.25 µM
- Serratia marcescens expressing IMP-1 (CL5741) MITC95 [5]: 75 µM
- Escherichia coli expressing NDM-1 (CLB 30016) MITC95 [6]: 3.125 µM

Compound: NS(=O)(=O)c1nccc(N2CCC(n3ccnc3)CC2)c1-c1nnn[nH]1 [Example 228, 4-[4-(1H-imidazol-1-yl)piperidin-1-yl]-3-(1H-tetrazol-5-yl)pyridine-2-sulfonamide]
- IC50 [1]: 3210 nM
- IC50 [2]: 372 nM
- IC50 [3, 7]: 343 nM
- Klebsiella pneumoniae expressing VIM-1 (IHMA 599644) MITC95 [4]: 37.5 µM
- Serratia marcescens expressing IMP-1 (CL5741) MITC95 [5]: 37.5 µM
- Escherichia coli expressing NDM-1 (CLB 30016) MITC95 [6]: 1.563 µM

Compound: CN(Cc1ccccc1)c1ccnc(S(N)(=O)=O)c1-c1nnn[nH]1 [Example 229, 4-[benzyl(methyl)amino]-3-(1H-tetrazol-5-yl)pyridine-2-sulfonamide]
- IC50 [1]: 466 nM
- IC50 [2]: 204 nM
- IC50 [3, 8]: 2.22 nM
- Klebsiella pneumoniae expressing VIM-1 (IHMA 599644) MITC95 [4]: 6.25 µM
- Serratia marcescens expressing IMP-1 (CL5741) MITC95 [5]: 50 µM
- Escherichia coli expressing NDM-1 (CLB 30016) MITC95 [6]: 12.5 µM
